Tested on: CT26 challenge tumor
Experiment: Challenge assay in CT26 tumor-bearing mice
Format: in vivo
Protocol: Challenge tumor inoculation: Up to 21 days after gas treatment was applied to the primary tumor, the appropriate cancer cell suspensions were prepared as described herein and inoculation of cells was repeated on the contralateral flank of the mice. Administration was performed as soon as possible following cell suspension preparation and after manual shaking prior to withdrawal of the cell suspension.
The percentage of challenge tumor take was monitored 2-3 times a week by taking a look at the inoculated site and touching this area to look for small tumors that are not yet visible. Naïve mice inoculated with tumor cells for the first time served as an internal control.
In another challenge assay, the tumors of CT26 tumor-bearing mice were treated with 25,000-200,000 ppm gNO delivered into the tumors using 23G hypodermic needles, as depicted in FIG. 17A.
CT26 tumor-bearing mice treated with 25,000 ppm for 30 minutes, were re-inoculated with CT26 tumor cells 12 days after treatment (n=1) and 14 days after treatment (n=1). The percentage of visible challenge tumor take was assessed 2-3 times a week for more than 50 days.
An additional group of CT26 tumor-bearing mice were treated with 50,000 ppm for 10 minutes, and were re-inoculated with CT26 tumor cells 7 days (n=1) or 9 days (n=1) after treatment. The percentage of challenge tumor take was assessed 2-3 times a week for 12 days.
An additional group of CT26 tumor-bearing mice were treated with 200,000 ppm for 2-35 seconds, were re-inoculated with CT26 tumor cells 14 days (n=2) post treatment. The percentage of visible challenge tumor take was assessed 2-3 times a week for more than 50 days.
Naïve mice, inoculated with CT26 for the first time, served as the control group.
The effect of high-pressure gas treatment on stimulation of anti-tumor immune response was tested in a challenge assay as depicted in FIG. 37A.
Balb/c mice were inoculated subcutaneously (s.c) with the mouse colon cancer cell line, CT26. […]

## [N]=O [gNO, nitric oxide]
25,000 ppm 30 minutes, 50,000 ppm 10 minutes or 200,000 ppm 2-35 seconds, naive mice 100% tumor take
  secondary CT26 tumor cell inoculation at end of follow-up: all NO-treated mice rejected a secondary CT26 tumor cell inoculation
25,000 ppm gNO, 0.25 LPM, two 15-minute cycles, outlet pressure 3.5-5.17 bars
  tumor-free mice, no primary and challenge tumors: 50%
25,000 ppm gNO, 0.25 LPM, two 15-minute cycles, outlet pressure 3.5-5.17 bars, re-inoculated days 12-14
  development of a secondary (challenge) CT26 tumor: have not developed a secondary tumor

From patent US20240238417A1, “METHODS OF PRODUCING TUMOR VACCINES AND USES THEREOF” (priority 2021, published 2024)
